How the values were obtained:
[1] = system: chronically scrapie-infected N2a/Bos2 cells; assay type: cell-based, mouse
[2] = system: N2a/Bos2 cells exposed to 0.1% scrapie-infected brain homogenate (RML prions); assay type: cell-based, mouse

phosphatidylinositol-specific phospholipase C [PIPLC]
effect on PrPSc in chronically infected cells [1]: causes rapid loss of PrPSc | effect on appearance of PrPSc ([2]; PIPLC 0.25, 0.5, 1 and 2 units/ml before and/or during exposure of a susceptible cell to prions): prevents appearance of PrPSc | concentration that sufficed to prevent appearance of PrPSc ([2]; added 2 h before and during 3-day exposure to 0.1% scrapie-infected brain homogenate, cell blot after 14 days in absence of PIPLC): 0.25 units/ml
